# Results published in PubChem BioAssay (NCI).
#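 Interpolation was linear, between the two tested concentrations surrounding the appropriate level; five concentrations were tested over 48 hours in 96-well plates. Here, GI50 denotes the concentration required for 50% inhibition of growth. TGI: total growth inhibition.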
# Tests used:
# Test in all cases: inhibition of tumour cell growth, NCI panel, 48 h
# [1] = system: SNB-75 CNS
# [2] = system: 786-0 renal
# [3] = system: OVCAR-8 ovarian
# [4] = system: PC-3 prostate
# [5] = system: OVCAR-4 ovarian
# [6] = system: BT-549 breast
# [7] = system: HOP-92 NSCLC
# [8] = system: U251 CNS
# [9] = system: SNB-19 CNS
# [10] = system: M14 melanoma
# [11] = system: OVCAR-3 ovarian
# [12] = system: SF-268 CNS
# [13] = system: MALME-3M melanoma
# [14] = system: UACC-62 melanoma
# [15] = system: SK-MEL-2 melanoma
# [16] = system: COLO 205 colon
# [17] = system: IGROV1 ovarian
# [18] = system: NCI-H226 lung
# [19] = system: MDA-MB-435
# [20] = system: CAKI-1 renal
# [21] = system: A549 NSCLC
# [22] = system: EKVX NSCLC
# [23] = system: NCI-H460 lung
# [24] = system: SF-539 CNS
# [25] = system: HL-60(TB) leukemia
# [26] = system: CCRF-CEM leukemia
# [27] = system: SK-MEL-5 melanoma
# [28] = system: NCI-H23 lung
# [29] = system: MOLT-4 leukemia
# [30] = system: DU-145 prostate
# [31] = system: OVCAR-5 ovarian
# [32] = system: SF-295 CNS
# [33] = system: NCI/ADR-RES ovarian
# [34] = system: HCT-15 colon
# [35] = system: A498 renal
# [36] = system: KM12 colon
# [37] = system: HOP-62 NSCLC
# [38] = system: SN12C renal
# [39] = system: HT29 colon
# [40] = system: SW-620 colon
# [41] = system: MDA-MB-231 breast
# [42] = system: LOX IMVI melanoma
# [43] = system: SK-MEL-28 melanoma
# [44] = system: RPMI-8226 leukemia
# [45] = system: SK-OV-3 ovarian
# [46] = system: T-47D breast
# [47] = system: MCF7 breast
# [48] = system: UACC-257 melanoma
# [49] = system: RXF 393 renal
# [50] = system: K-562 leukemia
# [51] = system: HS 578T breast
# [52] = system: HCC-2998 colon
# [53] = system: NCI-H522 lung
# [54] = system: MDA-MB-468 breast
# [55] = system: HCT-116 colon
# [56] = system: ACHN renal
# [57] = system: TK-10 renal
# [58] = system: UO-31 renal
compound,measurement,setting,value
CCCSc1nc(Nc2ccc(S(N)(=O)=O)cc2)c(C#N)c(-c2ccc(Cl)cc2)n1,GI50,[1],2.03 µM
same,TGI,[1],9.63 µM
same,GI50,[2],1.98 µM
same,TGI,[2],4.06 µM
same,GI50,[3],3.42 µM
same,TGI,[3],16.1 µM
same,GI50,[4],13.4 µM
same,TGI,[4],> 100 µM
same,GI50,[5],2.23 µM
same,TGI,[5],5.65 µM
same,GI50,[6],30.8 µM
same,TGI,[6],> 100 µM
same,GI50,[7],1.39 µM
same,TGI,[7],3.73 µM
same,GI50,[8],2.42 µM
same,TGI,[8],7.81 µM
same,GI50,[9],4.04 µM
same,TGI,[9],20.9 µM
same,GI50,[10],3.48 µM
same,TGI,[10],25.3 µM
same,GI50,[11],3.63 µM
same,TGI,[11],19.6 µM
same,GI50,[12],9 µM
same,TGI,[12],> 100 µM
same,GI50,[13],3.07 µM
same,TGI,[13],17.9 µM
same,GI50,[14],5.11 µM
same,TGI,[14],> 100 µM
same,GI50,[15],13.8 µM
same,TGI,[15],> 100 µM
same,GI50,[16],9.54 µM
same,TGI,[16],> 100 µM
same,GI50,[17],6.03 µM
same,TGI,[17],> 100 µM
same,GI50,[18],2.6 µM
same,TGI,[18],8.66 µM
same,GI50,[19],7.9 µM
same,TGI,[19],> 100 µM
same,GI50,[20],1.94 µM
same,TGI,[20],4.8 µM
same,GI50,[21],3.62 µM
same,TGI,[21],> 100 µM
same,GI50,[22],9.38 µM
same,TGI,[22],> 100 µM
same,GI50,[23],3.85 µM
same,TGI,[23],22.4 µM
same,GI50,[24],2.57 µM
same,TGI,[24],10 µM
same,GI50,[25],> 100 µM
same,TGI,[25],> 100 µM
same,GI50,[26],> 100 µM
same,TGI,[26],> 100 µM
same,GI50,[27],6.96 µM
same,TGI,[27],> 100 µM
same,GI50,[28],9.53 µM
same,TGI,[28],43 µM
same,GI50,[29],8.11 µM
same,TGI,[29],> 100 µM
same,GI50,[30],12.2 µM
same,TGI,[30],97.1 µM
same,GI50,[31],8.78 µM
same,TGI,[31],> 100 µM
same,GI50,[32],2.1 µM
same,TGI,[32],4.94 µM
same,GI50,[33],4.89 µM
same,TGI,[33],90.5 µM
same,GI50,[34],2.92 µM
same,TGI,[34],> 100 µM
same,GI50,[35],1.78 µM
same,TGI,[35],4.31 µM
same,GI50,[36],4.17 µM
same,TGI,[36],> 100 µM
same,GI50,[37],2.35 µM
same,TGI,[37],5.67 µM
same,GI50,[38],2.39 µM
same,TGI,[38],7.5 µM
same,GI50,[39],6.41 µM
same,TGI,[39],> 100 µM
same,GI50,[40],4.67 µM
same,TGI,[40],29.6 µM
same,GI50,[41],2.83 µM
same,TGI,[41],8.9 µM
same,GI50,[42],1.82 µM
same,TGI,[42],3.55 µM
same,GI50,[43],36.1 µM
same,TGI,[43],> 100 µM
same,GI50,[44],3.14 µM
same,TGI,[44],> 100 µM
same,GI50,[45],4.11 µM
same,TGI,[45],67.6 µM
same,GI50,[46],> 100 µM
same,TGI,[46],> 100 µM
same,GI50,[47],24.3 µM
same,TGI,[47],> 100 µM
same,GI50,[48],28.5 µM
same,TGI,[48],> 100 µM
same,GI50,[49],2 µM
same,TGI,[49],4.63 µM
same,GI50,[50],2.85 µM
same,TGI,[50],> 100 µM
same,GI50,[51],2.59 µM
same,TGI,[51],8.09 µM
same,GI50,[52],4.2 µM
same,TGI,[52],> 100 µM
same,GI50,[53],16.4 µM
same,TGI,[53],> 100 µM
same,GI50,[54],4.49 µM
same,TGI,[54],37.1 µM
COc1ccc(C2=NN(C(=O)c3cc(OC)c(OC)c(OC)c3)C(c3ccc(Cl)cc3)C2)cc1OC (stereo not given),GI50,[54],0.585 µM
same,TGI,[54],> 100 µM
Cc1cnc(/C=N\NC(N)=S)c2cccc(N)c12,GI50,[54],0.206 µM
same,TGI,[54],0.504 µM
O=c1c2ccccc2n2n1CC(O)C2 (stereo not given),GI50,[54],> 100 µM
same,TGI,[54],> 100 µM
CC(=O)OCC(=O)O[C@@H]1C[C@]2(C(C)C)O[C@@]1(C)[C@@H]1CC[C@@H](C)[C@H]1[C@@H]2OC(=O)/C=C/c1ccccc1,GI50,[54],13.5 µM
same,TGI,[54],55.6 µM
CC(=O)O[C@H](C[C@H](C(C)C)N(C)C(=O)[C@@H](NC(=O)[C@H]1CCCCN1C)C(C)C)c1nc(C(=O)N[C@@H](Cc2ccccc2)C[C@H](C)C(=O)O)c(C(C)C)s1,GI50,[54],< 0.00333 µM
same,TGI,[54],0.194 µM
Cn1cc(C2=C(c3cccnc3)C(=O)NC2=O)c2ccccc21,GI50,[54],> 20.1 µM
same,TGI,[54],> 25 µM
CN(C)c1ccc(/C=C(\C#N)c2nc3ccccc3n2C)cc1,GI50,[54],1.76 µM
same,TGI,[54],> 100 µM
CCN(CC)c1ccnc(CNCCSC(c2ccccc2)(c2ccccc2)c2ccc(C)cc2)c1,GI50,[1],2.87 µM
same,TGI,[1],14.1 µM
same,GI50,[2],1.71 µM
same,TGI,[2],3.21 µM
same,GI50,[3],2.49 µM
same,TGI,[3],6.12 µM
same,GI50,[4],2.27 µM
same,TGI,[4],7.77 µM
same,GI50,[5],3.7 µM
same,TGI,[5],14.5 µM
same,GI50,[6],1.9 µM
same,TGI,[6],5.46 µM
same,GI50,[7],1.62 µM
same,TGI,[7],5.87 µM
same,GI50,[8],2.14 µM
same,TGI,[8],6.02 µM
same,GI50,[9],3.13 µM
same,TGI,[9],12 µM
same,GI50,[10],1.84 µM
same,TGI,[10],3.68 µM
same,GI50,[11],2.21 µM
same,TGI,[11],5.07 µM
same,GI50,[12],3.35 µM
same,TGI,[12],13 µM
same,GI50,[13],1.68 µM
same,TGI,[13],3.13 µM
same,GI50,[14],2.64 µM
same,TGI,[14],8.33 µM
same,GI50,[16],1.84 µM
same,TGI,[16],3.39 µM
same,GI50,[17],3.21 µM
same,TGI,[17],12.3 µM
same,GI50,[18],4.45 µM
same,TGI,[18],20.4 µM
same,GI50,[19],2.26 µM
same,TGI,[19],5.38 µM
same,GI50,[20],3.11 µM
same,TGI,[20],12.8 µM
same,GI50,[21],4.98 µM
same,TGI,[21],20.6 µM
same,GI50,[22],1.78 µM
same,TGI,[22],3.97 µM
same,GI50,[55],1.67 µM
same,TGI,[55],3.18 µM
same,GI50,[56],3.22 µM
same,TGI,[56],11.7 µM
same,GI50,[23],1.98 µM
same,TGI,[23],3.79 µM
same,GI50,[24],1.87 µM
same,TGI,[24],3.52 µM
same,GI50,[25],2.22 µM
same,TGI,[25],4.52 µM
same,GI50,[26],1.96 µM
same,TGI,[26],5.19 µM
same,GI50,[27],1.73 µM
same,TGI,[27],3.12 µM
same,GI50,[28],1.7 µM
same,TGI,[28],3.27 µM
same,GI50,[57],4.37 µM
same,TGI,[57],17 µM
same,GI50,[58],2.66 µM
same,TGI,[58],12.7 µM
same,GI50,[29],2.85 µM
same,TGI,[29],7.28 µM
same,GI50,[30],2.92 µM
same,TGI,[30],8.29 µM
same,GI50,[31],2.67 µM
same,TGI,[31],11.3 µM
same,GI50,[32],1.59 µM
same,TGI,[32],3.01 µM
same,GI50,[34],1.67 µM
same,TGI,[34],3.15 µM
same,GI50,[35],12.4 µM
same,TGI,[35],27.4 µM
same,GI50,[36],2.33 µM
same,TGI,[36],5.79 µM
same,GI50,[37],2.29 µM
same,TGI,[37],6.21 µM
same,GI50,[38],2.4 µM
same,TGI,[38],6.29 µM
same,GI50,[39],1.91 µM
same,TGI,[39],4.01 µM
same,GI50,[40],2.47 µM
same,TGI,[40],6.86 µM
same,GI50,[41],1.99 µM
same,TGI,[41],4.53 µM
same,GI50,[42],1.67 µM
same,TGI,[42],3.09 µM
same,GI50,[43],1.86 µM
same,TGI,[43],4.16 µM
same,GI50,[44],2.05 µM
same,TGI,[44],4.88 µM
same,GI50,[45],3.31 µM
same,TGI,[45],11.5 µM
same,GI50,[46],2.5 µM
same,TGI,[46],9.04 µM
same,GI50,[47],1.38 µM
same,TGI,[47],2.85 µM
same,GI50,[48],3.52 µM
same,TGI,[48],11.8 µM
same,GI50,[49],2.23 µM
same,TGI,[49],7.24 µM
same,GI50,[50],2.34 µM
same,TGI,[50],6.15 µM
same,GI50,[51],2.39 µM
same,TGI,[51],7.84 µM
same,GI50,[52],1.69 µM
same,TGI,[52],3.07 µM
same,GI50,[53],2.27 µM
same,TGI,[53],5.61 µM
same,GI50,[54],1.83 µM
same,TGI,[54],3.85 µM
O=C1c2ccccc2C(=Cc2ccccc2)c2ccccc21,GI50,[54],0.565 µM
same,TGI,[54],10.7 µM
CN(C)c1ncnc2c1nnn2C1OC(CO)C(O)C1O (stereo not given),GI50,[54],0.0736 µM
same,TGI,[54],1.16 µM
CNC(=O)c1ccc2cc(C3(O)CCn4cncc43)ccc2c1 (stereo not given),GI50,[54],> 100 µM
same,TGI,[54],> 100 µM
